As usually defined, the IC50 is the concentration that gives 50% inhibition. Read a low IC50 as greater potency in that assay.

Here are results for twelve compounds from patent US5434154A, “Antimigraine 4-pyrimidinyl and pyridinyl derivatives of indol-3yl-alkylpiperazines” (Bristol-Myers Squibb Company, priority 1994, dated 1995).

Counter-ions that a name gives are not always drawn.

One data set deals with migraine. The conditions noted are these: cited from earlier work.
The test system of a further data set is migraine sufferers. To be noted: cited from earlier work.
In another data set the target is T1, 5-HT1D (Bos taurus, UniProt F1MGM3).
T1 construct: methodology such as that described by Heuring and Peroutka, J. Neurosci., 7(3), 1987, 894-903; with only minor modifications; from tissue
T1 sequence (F1MGM3 1-403): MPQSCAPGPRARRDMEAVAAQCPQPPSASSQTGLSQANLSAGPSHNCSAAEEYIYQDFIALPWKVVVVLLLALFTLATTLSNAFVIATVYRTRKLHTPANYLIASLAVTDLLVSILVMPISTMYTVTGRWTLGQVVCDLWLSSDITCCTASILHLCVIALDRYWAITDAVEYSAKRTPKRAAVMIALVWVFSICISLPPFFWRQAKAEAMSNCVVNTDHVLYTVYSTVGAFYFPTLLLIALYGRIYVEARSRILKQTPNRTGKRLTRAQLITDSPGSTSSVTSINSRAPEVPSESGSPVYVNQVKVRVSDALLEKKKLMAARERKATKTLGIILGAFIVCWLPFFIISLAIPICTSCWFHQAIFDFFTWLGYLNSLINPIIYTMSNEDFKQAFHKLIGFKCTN
In words: 5-HT1D binding (displacement of tritiated serotonin). To be noted: in vitro, Table 2. The protocol:
Determination of 5-HT1D binding properties was accomplished employing methodology such as that described by Heuring and Peroutka, J. Neurosci., 7(3), 1987, 894-903; with only minor modifications. In vitro IC50 (nM) test values were determined for the compounds of this invention employing tritiated serotonin.

As to `CN1C[C@H](C(=O)N[C@]2(C)O[C@@]3(O)[C@@H]4CCCN4C(=O)[C@H](Cc4ccccc4)N3C2=O)C=C2c3cccc4[nH]cc(c34)C[C@H]21` [ergotamine], the dependence entry with migraine (extended use) is on record as “cause dependence with extended use”. With `NCCc1c[nH]c2ccc(O)cc12` [serotonin], in the data set with migraine sufferers (in vivo), the “effect in treating migraine attacks” value is given as “effective in treating migraine attacks”; the “side-effects in migraine use” value was “restlessness, nausea, faintness, hyperpnea, facial flushing and parasthesias”. `COc1cncnc1N1CCN(CCCc2c[nH]c3ccc(N(C)S(C)(=O)=O)cc23)CC1C` (centres unmarked) [Example 70] yielded an IC50 at 5-HT1D of 11 nM.

In turn, `COc1cncnc1N1CCN(CCCc2c[nH]c3ccc(F)cc23)CC1` [Example 64] gave an IC50 on 5-HT1D of 1.5 nM. The same measure, in the same setting: the same measure for `COc1cncnc1N1CCN(CCCc2c[nH]c3ccc(CC(=O)NCc4ccccc4)cc23)CC1` [Example 84]: 4.6 nM. Turning to `CNS(=O)(=O)Cc1ccc2[nH]cc(CCCN3CCN(c4ccncc4OC)CC3)c2c1` [Example 61, 4-(5-Methoxy-4-pyridinyl)-1-[3-[5-[[(methylamino)sulfonyl]methyl]-1H-indol-3-yl]propyl]piperazine hydrochloride], the IC50 at 5-HT1D came out at 1 nM. On the same count and under the same terms, the same measure for `COc1cncnc1N1CCN(CCCc2c[nH]c3ccc(CS(N)(=O)=O)cc23)CC1` [Example 81]: 7.9 nM. On to `CC[C@@H](CO)NC(=O)[C@@H]1C=C2c3cccc4c3c(cn4C)C[C@H]2N(C)C1` [methysergide], for which the side-effects entry with migraine (long term usage) is on record as “severe use-limiting side-effects with long term usage”. As for `NCCc1c[nH]c2ccc(O)cc12` [serotonin creatinine sulfate], the “alleviation of reserpine-induced headache” value in the data set with migraine sufferers (slow I.V. injection) is recorded as “This induced headache can be alleviated”. `COc1cncnc1N1CCN(CCCc2c[nH]c3ccc(NS(C)(=O)=O)cc23)CC1C` (centres unmarked) [Example 68]: the IC50 on 5-HT1D was 9.6 nM.

`COC(=O)[C@H]1[C@H]2C[C@@H]3c4[nH]c5cc(OC)ccc5c4CCN3C[C@H]2C[C@@H](OC(=O)c2cc(OC)c(OC)c(OC)c2)[C@@H]1OC` [reserpine]: the “induction of headache in migraine sufferers” value with migraine sufferers (in vivo) was “induces a typical migraine-type headache in migraine sufferers”. Also, the plasma serotonin result with migraine sufferers (intramuscular injection) was “lowers plasma serotonin”. As to `COc1cnccc1N1CCN(CCCc2c[nH]c3ccccc23)CC1` [Example 62, 1-[3-(1H-indol-3-yl)propyl]-4-(3-methoxy-4-pyridinyl)piperazine dihydrochloride], at 5-HT1D, the half-maximal inhibitory concentration (IC50) is 10 nM.
